Data as given in patent publication US20250114335A1, “METHODS AND COMPOSITIONS FOR THE TREATMENT OF EPILEPSY” (ARIZONA BOARD OF REGENTS ON BEHALF OF THE UNIVERSITY OF …, priority 2022, published 2025).

Tested on: hippocampal gene expression
Assay: RNAseq and pathway analysis of hippocampal tissue, B6-D/D juveniles
Type: in vivo, mouse
Experimental: Transcriptome studies: B6-D/D and wild-type (+/+) (n=3) were administered CND or VEH by s.c. injection for a period of 5 days starting at P15 and sacrificed for removal of hippocampal tissue (n=12) (FIG. 1B). Adult B6-D/+ male (n=3) mice were administered CND or VEH pellets as described above at the time of seizure onset and monitored for seizures for an extended period before sacrifice and removal of hippocampal tissue (100-160 d) (i.e., to match the age at which a VEH-treated male B6-D/+ experience ˜20 TCs) (FIG. 1B).
RNA sequencing: Hippocampal tissues from 21 mice were obtained according to a sampling strategy that compared (1) untreated (VEH only) and treated B6-D/D (n=3) with age-matched B6-+/+ controls (n=3 per group), (2) untreated (VEH only) male B6-D/+ mice that had experienced ˜20 TCs (n=3 per group) with age-matched B6-+/+ controls (n=3 per group), and (3) male B6-D/+ mice that were treated with CND for an extended period (n=3 per group). Brains of treated and untreated mice were dissected to yield tissue samples from the hippocampus. Bulk tissue was stored in RNALater (Qiagen, Valencia, CA) at −80 degrees centigrade. The technique for analyzing hippocampal gene expression was performed. Briefly, RNA was isolated from hippocampal tissue, and initial QC was performed. Libraries were constructed using a stranded mRNA-Seq Kit, and average fragment size was assessed. After concentrations were determined with an adaptor-specific qPCR kit, equimolar samples were pooled and clustered for sequencing on a Novaseq instrument (Illumina). Sample data were demultiplexed, trimmed, and quality filtered, and Fastq files were splice-aligned against the […] reference genome using STAR aligner version 2.5.2b. Gene expression counts were obtained using htseq-count version 0.6.1. Both splice alignment and counting were performed with Ensembl Annotation of the NCBI reference genome, and raw counts were analyzed with edgeR version 3.16.5.
Data and pathway analysis: Results of statistical summaries were generally expressed as mean±SD. Kaplan-Meier survival curves were used to test for differences in survival. […] A ‘perturbation signature’ approach was used to identify genome-wide differences in transcript abundance between transgenic mice (i.e., D/+, D/D, or +/+) that were untreated (VEH) or treated with CND. Differential expression analysis was performed. Briefly, the exactTest function was utilized in edgeR, and gene expression counts were first normalized using the calcNormFactors function. DEG analysis was performed on treatment versus control groups at two different ages using three biological replicates per group, which has been shown in power analyses to be sufficient to yield a true positive rate greater than 80% under the conditions used here. Multidimensional scaling (MDS) plots were constructed using the ‘plotMDS’ function in edgeR, which plots samples on a 2D scatterplot so that distances on the plot approximate the typical log 2 fold changes between samples. […] Rather than focusing on any single gene, bioinformatic analyses of our RNAseq data identified the most statistically significant biological pathways that were enriched given the set of DEGs in each experiment.

[1] = CND-treated B6-D/D, FDR-adjusted P-value <0.05
[2] = treated juveniles, FDR cutoff 0.25

CCOc1nc2cccc(C(=O)O)c2n1Cc1ccc(-c2ccccc2-c2nnn[nH]2)cc1 [CND, candesartan]
TREATED z-score, upstream regulator ACKR2 (B6-D/D Juveniles): −2.00
TREATED z-score, upstream regulator IL1B (B6-D/D Juveniles): 1.76
TREATED z-score, upstream regulator PTGER4 (B6-D/D Juveniles): −2.43
TREATED z-score, upstream regulator SIRT1 (B6-D/D Juveniles): −2.83
TREATED z-score, upstream regulator TGFB1 (B6-D/D Juveniles): 0.42
TREATED z-score, upstream regulator TNF (B6-D/D Juveniles): 1.32
TREATED z-score, upstream regulator lipopolysaccharide (B6-D/D Juveniles): 3.19
number of down-regulated DEGs [1]: 25
number of up-regulated DEGs [1]: 50
z-score, EIF2 Signaling pathway [2]: 3.2
z-score, Granzyme A Signaling pathway [2]: −3.4
z-score, Mitochondrial Dysfunction pathway [2]: −3.8
z-score, Oxidative Phosphorylation pathway [2]: 5.0
odds ratio, enhancement of ETC gene activation in treated versus untreated (treated juveniles, FDR≤0.25, 95% CI=3.5-979): 23 fold
